From publication PMC4627800, “Allelic Variation of Cytochrome P450s Drives Resistance to Bednet Insecticides in a Major Malaria Vector” (PLoS Genetics, 2015)
Marks after values point to notes of the source that are not given here.

What was measured:
Type in all cases: biochemical
[1] = target: MALCYP6P9a (Anopheles funestus, UniProt B5AII6); assay: Steady-state kinetics of pyrethroid metabolism
Experimental: (§1) Reactions were performed in triplicates both for +NADPH (experimental tubes) and–NADPH (negative control). K m and V max were established from the plot of substrate concentrations against the initial velocities and fitting of the data to the Michaelis-Menten module using the least squares non-linear regression, as described in the GraphPad Prism 6.03 Software (GraphPad Inc., La Jolla, CA, USA).

[2] = target: Asn^384Ser_CYP6P9b (Anopheles funestus, UniProt B5AII7, N384S); assay: Kinetics of permethrin metabolism by CYP6P9b mutants
Experimental: as §1
(§2) In addition, fluorescent probes were also screened to establish differences in the O-dealkylation activity of the mutants compared with the wild type enzyme. All in vitro and kinetic analyses were conducted as described above. However, as different mutants expressed with varying concentrations all assays were conducted within linear range, with the amount of enzyme and time which produced highest activities.

[3] = target: Val^109Ile_CYP6P9b (Anopheles funestus, UniProt B5AII7, V109I); assay: as above
Experimental: as §1, §2

[4] = target: Pro^401Ala_CYP6P9b (Anopheles funestus, UniProt B5AII7, P401A); assay: as above
Experimental: as §1, §2

[5] = target: Asp^335Glu_CYP6P9b (Anopheles funestus, UniProt B5AII7, D335E); assay: as above
Experimental: as §1, §2

## CC1(C)C(C=C(Cl)Cl)C1C(=O)OCc1cccc(Oc2ccccc2)c1 (centres unmarked) [permethrin]
[1]
  Kcat: 15.41±6.30^a min^-1
  Km: 18.8 ± 11.8 µM
[1]; MALCYP6P9a vs FANGCYP6P9a
  Kcat, fold higher than FANGCYP6P9a: 3 fold
  catalytic efficiency, fold higher than FANGCYP6P9a: 6 fold
[2]
  Km: 17.9 ± 0.87 µM
  Km of mutant, fold of Asp^335Glu mutant: 4 fold
  Km of mutant, fold of wrMALCYP6P9b: 2 fold
[2]; Asn^384Ser_CYP6P9b, mean ± S.E.M.
  Kcat: 0.87±0.08*** min^-1
[2]; wrMALCYP6P9b vs Asn^384Ser
  Kcat of wrMALCYP6P9b, fold of mutant: 9 fold
  catalytic efficiency of wrMALCYP6P9b, fold of mutant: 20 fold
[3]
  Km: 20.5 ± 1.35 µM
  Km of mutant, fold of Asp^335Glu mutant: 4 fold
  Km of mutant, fold of wrMALCYP6P9b: 2 fold
[3]; Val^109Ile_CYP6P9b, mean ± S.E.M.
  Kcat: 1.35±0.57** min^-1
[3]; wrMALCYP6P9b vs Val^109Ile
  Kcat of wrMALCYP6P9b, fold of mutant: 6 fold
  catalytic efficiency of wrMALCYP6P9b, fold of mutant: 13 fold
[4]
  Km: 15.4 ± 6.5 µM
[4]; Pro^401Ala_CYP6P9b, mean ± S.E.M.
  Kcat: 4.21±0.96* min^-1
[4]; wrMALCYP6P9b vs Pro^401Ala
  catalytic efficiency of wrMALCYP6P9b, fold of mutant: 3 fold
[5]
  Km: 5.19 ± 1.89 µM
[5]; Asp^335Glu_CYP6P9b, mean ± S.E.M.
  Kcat: 0.98±0.12*** min^-1
[5]; wrMALCYP6P9b vs Asp^335Glu
  Kcat of wrMALCYP6P9b, fold of mutant: 8 fold
  catalytic efficiency of wrMALCYP6P9b, fold of mutant: 4 fold
